Measurements: patent US20240398771A1, “TREATMENT OF SCLERODERMA AND RAYNAUD'S SYNDROME” (Aisa Pharma, Inc., priority 2023, published 2024)

System: participants with SSc-RP
Test: Average duration of weekly symptomatic RP attacks (minutes)
Format: in vivo, human
Conditions: ITT Part A
Excerpt: The relevant metrics measured by this tool daily are: • Study medication • SSc-RP symptoms (Reporting an attack including duration of attack) • Severity of the attack considering all symptoms of the attack e.g. tingling, numbness, pain, color changes (VAS 0-10 cm scale) • Participant's location at the time of the attack (inside home/outside home) • Selecting symptoms experienced during the attack (tingling, numbness, pain, color changes, other) • Pain rating during the attack (11-point Likert scale) • The RCS based on how much difficulty participants had with Raynaud's today, how many attacks the participant had, and how long they lasted. Participants will also be asked to consider how much pain, numbness, or other symptoms the Raynaud's caused in fingers (including painful sores), and how much the Raynaud's alone affected the use of hands today (VAS 0-10 cm scale).
The absolute change in average duration of weekly RP attacks from baseline to the end of each dosing period was and will be a secondary outcome variable. The sponsor-developed participant-informed diary was and will be used to record data. Average duration of weekly RP attacks is defined as the total duration of RP attacks divided by total number of RP attacks within the last 7 days of each dosing period. Total duration of RP attacks during the last 7 days of screening period divided by the total number of RP attacks will be used as baseline for the analysis of all periods. The variable will be calculated similar to frequency data as before.

[1] = Excluding Outliers, Baseline RCS subgroup 1 (Table B-4, stratum not given), last 7 days of screening period, listed as Pooled Cilnidipine
[2] = Baseline RCS subgroup 1 (Table B-3, stratum not given), last 7 days of dosing period, listed as Cilnidipine 10 mg
[3] = Baseline RCS subgroup 1 (Table B-3, stratum not given), last 7 days of dosing period, listed as Cilnidipine 20 mg
[4] = Baseline RCS subgroup 1 (Table B-3, stratum not given), last 7 days of dosing period, listed as Pooled Cilnidipine
[5] = Baseline RCS subgroup 1 (Table B-3, stratum not given), last 7 days of screening period, listed as Cilnidipine 10 mg
[6] = Baseline RCS subgroup 1 (Table B-3, stratum not given), last 7 days of screening period, listed as Cilnidipine 20 mg
[7] = Baseline RCS subgroup 1 (Table B-3, stratum not given), last 7 days of screening period, listed as Pooled Cilnidipine

COCCOC(=O)C1=C(C)NC(C)=C(C(=O)OC/C=C/c2ccccc2)C1c1cccc([N+](=O)[O-])c1 (centres unmarked) [Cilnidipine, 1,4-dihydro-2,6-dimethyl,4-(3-nitrophenyl)-3,5-pyridinedicarboxylic acid 2-methoxyethyl (2 E)-3-phenyl-2-propenyl ester]
Average duration of weekly symptomatic RP attacks, Baseline, Mean [1]: 29.37 min | Average duration of weekly symptomatic RP attacks, Baseline, Median [1]: 26.39 min | Average duration of weekly symptomatic RP attacks, Baseline, Q1 [1]: 13.33 min | Average duration of weekly symptomatic RP attacks, Baseline, Q3 [1]: 48.38 min | Average Duration of weekly symptomatic RP attacks, Max [2]: 31.6, 31.6 minutes | Average Duration of weekly symptomatic RP attacks, Min [2]: 31.6, 31.6 minutes | Average duration of weekly symptomatic RP attacks, Change from Baseline, Max [2]: −16.7, −16.7 minutes | Average duration of weekly symptomatic RP attacks, Change from Baseline, Q1 [2]: −16.74, −16.74 minutes | Average duration of weekly symptomatic RP attacks, Change from Baseline, Q3 [2]: −16.74, −16.74 minutes | Average duration of weekly symptomatic RP attacks, Percent Change from Baseline, Max [2]: −34.6, −34.6% | Average duration of weekly symptomatic RP attacks, Percent Change from Baseline, Min [2]: −34.6, −34.6% | Average duration of weekly symptomatic RP attacks, Percent Change from Baseline, Q3 [2]: −34.60, −34.60% | Average Duration of weekly symptomatic RP attacks [3]: 3.0 min | Average Duration of weekly symptomatic RP attacks, Max [3]: 30.5 min | Average Duration of weekly symptomatic RP attacks, Q1 [3]: 3.00 min | Average Duration of weekly symptomatic RP attacks, Q3 [3]: 30.45 min | Average duration of weekly symptomatic RP attacks, Change from Baseline [3]: -10.3 min | Average duration of weekly symptomatic RP attacks, Change from Baseline, Max [3]: 4.1 min | Average duration of weekly symptomatic RP attacks, Change from Baseline, Q1 [3]: -10.33 min | Average duration of weekly symptomatic RP attacks, Change from Baseline, Q3 [3]: 4.07 min | Average duration of weekly symptomatic RP attacks, Percent Change from Baseline, Max [3]: 15.4% | Average duration of weekly symptomatic RP attacks, Percent Change from Baseline, Min [3]: −77.5% | Average duration of weekly symptomatic RP attacks, Percent Change from Baseline, Q1 [3]: −77.50% | Average Duration of weekly symptomatic RP attacks [4]: 3.0 min | Average Duration of weekly symptomatic RP attacks, Max [4]: 31.6 min | Average Duration of weekly symptomatic RP attacks, Q1 [4]: 3.00 min | Average Duration of weekly symptomatic RP attacks, Q3 [4]: 31.64 min | Average duration of weekly symptomatic RP attacks, Change from Baseline [4]: -16.7 min | Average duration of weekly symptomatic RP attacks, Change from Baseline, Max [4]: 4.1 min | Average duration of weekly symptomatic RP attacks, Change from Baseline, Q1 [4]: -16.74 min | Average duration of weekly symptomatic RP attacks, Change from Baseline, Q3 [4]: 4.07 min | Average duration of weekly symptomatic RP attacks, Percent Change from Baseline, Max [4]: 15.4% | Average duration of weekly symptomatic RP attacks, Percent Change from Baseline, Median [4]: −34.60% | Average duration of weekly symptomatic RP attacks, Percent Change from Baseline, Min [4]: −77.5% | Average duration of weekly symptomatic RP attacks, Percent Change from Baseline, Q1 [4]: −77.50% | Average duration of weekly symptomatic RP attacks, Baseline, Max [5]: 48.4, 48.4 minutes | Average duration of weekly symptomatic RP attacks, Baseline, Mean [5]: 48.38 min | Average duration of weekly symptomatic RP attacks, Baseline, Median [5]: 48.38 min | Average duration of weekly symptomatic RP attacks, Baseline, Min [5]: 48.4, 48.4 minutes | Average duration of weekly symptomatic RP attacks, Baseline, Q1 [5]: 48.38, 48.38 minutes | Average duration of weekly symptomatic RP attacks, Baseline, Q3 [5]: 48.38, 48.38 minutes | Average duration of weekly symptomatic RP attacks, Baseline [6]: 13.3 min | Average duration of weekly symptomatic RP attacks, Baseline, Max [6]: 26.4 min | Average duration of weekly symptomatic RP attacks, Baseline, Mean [6]: 19.86 min | Average duration of weekly symptomatic RP attacks, Baseline, Median [6]: 19.86 min | Average duration of weekly symptomatic RP attacks, Baseline, Q1 [6]: 13.33 min | Average duration of weekly symptomatic RP attacks, Baseline, Q3 [6]: 26.39 min | Average duration of weekly symptomatic RP attacks, Baseline [7]: 13.3 min | Average duration of weekly symptomatic RP attacks, Baseline, Max [7]: 48.4 min | Average duration of weekly symptomatic RP attacks, Baseline, Mean [7]: 29.37 min | Average duration of weekly symptomatic RP attacks, Baseline, Median [7]: 26.39 min | Average duration of weekly symptomatic RP attacks, Baseline, Q1 [7]: 13.33 min | Average duration of weekly symptomatic RP attacks, Baseline, Q3 [7]: 48.38 min
